Reference: PubChem BioAssay (NCI)
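A five-concentration, 48-hour dose response in 96-well plates underlies each endpoint, interpolated linearly between surrounding concentrations. Here, GI50 denotes the concentration required for 50% inhibition of growth. TGI marks complete inhibition of growth.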

What was measured:
Experiment in all cases: inhibition of tumour cell growth, NCI panel, 48 h
SN12C renal = system: SN12C renal
HCT-116 colon = system: HCT-116 colon
NCI/ADR-RES ovarian = system: NCI/ADR-RES ovarian
HS 578T breast = system: HS 578T breast
EKVX NSCLC = system: EKVX NSCLC
RXF 393 renal = system: RXF 393 renal
OVCAR-3 ovarian = system: OVCAR-3 ovarian
HT29 colon = system: HT29 colon
CCRF-CEM leukemia = system: CCRF-CEM leukemia
HOP-62 NSCLC = system: HOP-62 NSCLC

Structure (SMILES)	TGI (SN12C renal)	TGI (HCT-116 colon)	TGI (NCI/ADR-RES ovarian)	TGI (HS 578T breast)	TGI (EKVX NSCLC)	TGI (RXF 393 renal)	TGI (OVCAR-3 ovarian)	TGI (HT29 colon)	TGI (CCRF-CEM leukemia)	TGI (HOP-62 NSCLC)	GI50 (SN12C renal)	GI50 (HCT-116 colon)	GI50 (NCI/ADR-RES ovarian)	GI50 (HS 578T breast)	GI50 (EKVX NSCLC)	GI50 (RXF 393 renal)	GI50 (OVCAR-3 ovarian)	GI50 (HT29 colon)	GI50 (CCRF-CEM leukemia)	GI50 (HOP-62 NSCLC)
O=[N+]([O-])C(C=C(n1nnc2ccccc21)n1nnc2ccccc21)=C(n1nnc2ccccc21)n1nnc2ccccc21	> 100 µM	> 100 µM	> 100 µM	> 100 µM	> 100 µM	> 100 µM	> 100 µM	> 100 µM	> 100 µM	> 100 µM	–	–	–	–	–	–	–	–	–	–
O=C1N(c2ccccc2)C(=S)/C(=C/c2ccc(Cl)cc2)N1c1ccc(Cl)cc1	> 100 µM	> 100 µM	> 100 µM	> 100 µM	> 100 µM	> 100 µM	> 100 µM	> 100 µM	61.1 µM	> 100 µM	–	–	–	–	–	–	–	–	–	–
O=c1cc(N2CCCC2)[nH]c(=O)n1-c1ccc(Cl)cc1	> 100 µM	> 100 µM	> 100 µM	> 100 µM	> 100 µM	> 100 µM	> 100 µM	> 100 µM	> 100 µM	> 100 µM	–	–	–	–	–	–	–	–	–	–
O=S(=O)(O)c1ccc2c(N=Nc3ccc(Sc4ccc(N=Nc5c(O)ccc6cc(S(=O)(=O)O)ccc56)cc4)cc3)c(O)ccc2c1	> 100 µM	> 100 µM	> 100 µM	> 100 µM	> 100 µM	> 100 µM	> 100 µM	> 100 µM	> 100 µM	> 100 µM	–	–	–	–	–	–	–	–	–	–
CN(C)CCNC(=O)c1c(O)ccc2c1c1c(n2CCc2ccccc2)C(=O)c2ccccc2C1=O	20 µM	10.5 µM	29.4 µM	27.1 µM	28.5 µM	5.17 µM	28.1 µM	19.3 µM	6.43 µM	23.1 µM	–	–	–	–	–	–	–	–	–	–
CCOC(=O)c1cc(Br)c(-c2cc(C)co2)[nH]1	> 100 µM	> 100 µM	> 100 µM	> 100 µM	> 100 µM	> 100 µM	> 100 µM	> 100 µM	> 100 µM	> 100 µM	–	–	–	–	–	–	–	–	–	–
CC(=O)NC1C(OCc2ccccc2)OC(CO)C(O)C1OCC(=O)N[C@@H](C)C(=O)N[C@H](CCC(=O)NCCCNc1ccc([N+](=O)[O-])c2[nH]c3ccccc3c(=O)c12)C(N)=O (stereo not given in full)	> 100 µM	> 100 µM	> 100 µM	90.2 µM	> 100 µM	> 100 µM	> 100 µM	> 100 µM	> 100 µM	> 100 µM	–	–	–	–	–	–	–	–	–	–
CCOC(=O)C1=C(C)N(Cc2ccccc2)C2(O)C=CC(=O)C3=C(O)c4ccccc4C(=O)C312 (stereo not given)	32.1 µM	21.8 µM	0.708 µM	97.7 µM	39.6 µM	19.7 µM	20.2 µM	> 100 µM	36.5 µM	31.8 µM	–	–	–	–	–	–	–	–	–	–
CC/C(N)=N\NC(=O)OC(C)(C)C	> 100 µM	> 100 µM	> 100 µM	> 100 µM	> 100 µM	> 100 µM	> 100 µM	> 100 µM	> 100 µM	> 100 µM	–	–	–	–	–	–	–	–	–	–
C[C@H](CCC(=O)NCC(=O)O)[C@H]1CC[C@H]2[C@@H]3[C@H](O)C[C@@H]4C[C@H](O)CC[C@]4(C)[C@H]3CC[C@]12C	> 100 µM	> 100 µM	> 100 µM	> 100 µM	> 100 µM	> 100 µM	> 100 µM	> 100 µM	> 100 µM	> 100 µM	–	–	–	–	–	–	–	–	–	–
CCNC(=S)N/N=C(\C)c1cccc(C)n1	> 100 µM	53.1 µM	> 100 µM	> 100 µM	> 100 µM	> 100 µM	> 100 µM	> 100 µM	> 100 µM	> 100 µM	–	–	–	–	–	–	–	–	–	–
COc1ccc(-c2n/c(=C\c3c(O)[nH]c4ccccc34)cc3c2=Nc2ccccc2-3)cc1	5.3 µM	2.88 µM	3.04 µM	5.75 µM	52 µM	2.67 µM	2.28 µM	2.29 µM	7.1 µM	3.23 µM	2.03 µM	1.55 µM	0.667 µM	1.85 µM	3.44 µM	1.26 µM	1.01 µM	1.1 µM	2.24 µM	1.63 µM
O=c1[nH]c2ccc([N+](=O)[O-])cc2nc1/C=C(\O)c1ccccc1	59.5 µM	> 100 µM	81.5 µM	8.93 µM	> 100 µM	49.8 µM	99.2 µM	> 100 µM	> 100 µM	22.1 µM	–	–	–	–	–	–	–	–	–	–
CC1(C)CC(=O)C2=C(C1)OC1(CC2c2ccc(Cl)cc2)CC(c2ccc(Cl)cc2)C2=C(CC(C)(C)CC2=O)O1 (stereo not given)	> 84.2 µM	> 48.9 µM	> 73.3 µM	36.1 µM	34.4 µM	94.3 µM	23.5 µM	> 100 µM	> 76.7 µM	34.2 µM	–	–	–	–	–	–	–	–	–	–
CC/C(=C\c1ccc(OC)cc1)c1ccc(OC)cc1	> 100 µM	> 100 µM	> 100 µM	> 100 µM	> 100 µM	> 100 µM	> 100 µM	> 100 µM	> 100 µM	> 100 µM	–	–	–	–	–	–	–	–	–	–
CCOC(=O)C(C/C=C/CO)N(C)C(=O)OC(C)(C)C (stereo not given)	> 100 µM	> 100 µM	> 100 µM	> 100 µM	> 100 µM	> 100 µM	> 100 µM	> 100 µM	> 100 µM	> 100 µM	–	–	–	–	–	–	–	–	–	–
COc1cc(/C=N/NC2=NCCN2)ccc1O	> 100 µM	> 100 µM	> 100 µM	> 100 µM	> 100 µM	> 100 µM	> 100 µM	> 100 µM	> 100 µM	> 100 µM	–	–	–	–	–	–	–	–	–	–
CN1CCN([C@H]2C[C@H]3[C@@H]4CC=C5C[C@@H](O)CC[C@]5(C)[C@H]4CC[C@]3(C)[C@H]2O)CC1	> 100 µM	> 80.6 µM	> 100 µM	> 100 µM	> 100 µM	51.9 µM	> 57.8 µM	28.6 µM	57.1 µM	> 100 µM	–	–	–	–	–	–	–	–	–	–
